Laboratory results taken from US11331396B2, “Development of injectable fiducial markers for image guided radiotherapy with dual MRI and CT visibility” (TECHNICAL UNIVERSITY OF DENMARK, priority 2017, dated 2022).

Assay: In-vitro confocal microscopy of markers containing fluorescent amphiphiles in PBS
Format: physicochemical
Settings: LAP:GTH with co-solvent (5% PC or 10% EtOH)
Procedure: DOPE-RhB was dissolved in EtOH or triglycerides and added to the formulations in amounts resulting in the desired final concentrations (˜1.3*10^−3 ug/uL) in formulations consisting of lactose acetate:propionate 1:1/lactose isobutyrate co-formulated with either 25 wt % EtOH or 40 wt % triglyceride (GTO/GTH), with or without 10 wt % EtOH or 5 wt % PC (˜240 uL formulations in total). The DOPE-RhB solutions were made from a motherstock of 1 mg/mL DOPE-RhB in EtOH with serial dilution into EtOH/triglyceride (GTO/GTH). The injected formulations were imaged in PBS in 8-well microscope slides under the confocal microscope. […]
Laser Scanning Confocal Microscopy was performed using a Leica TCS SP5 Scanning Laser Confocal Microscope operated using a 61× wet objective and a 561 nm excitation DPPS Laser. Samples (˜5-10 uL) were prepared in 8 well microscope slides containing PBS buffer and imaged on the same day to study the distribution of fluorescence signal within the material. In case of Rhodamine B, emission was detected between 575 and 674 nm, while in case of carboxy fluorescein emission was detected between 480 and 580 nm. […]

CCCCCCCC/C=C\CCCCCCCC(=O)OC[C@H](COP(=O)(O)OCCNC(=O)c1ccc2c(c1)C(=O)OC21c2ccc(O)cc2Oc2cc(O)ccc21)OC(=O)CCCCCCC/C=C\CCCCCCCC.N.N [DOPE-CF]
Distribution of fluorophore labeled lipid in the marker: clearly higher distribution of DOPE-RhB and DOPE-CF in the rim of the injected formulation
